# Assay results as given in patent EP0506704B1, “USE OF ALKYL PHOSPHOLIPIDS AS ANTIVIRAL DRUGS, AS WELL AS NEW COMPOUNDS” (BOEHRINGER MANNHEIM GMBH, priority 1989, dated 1991).
# System: HIV
# Experiment: Anti-HIV activity in cell culture: inhibition of HIV replication, virus in supernatant quantified by reinfection of human fetal lung cells
# Format: cell-based
# Conditions: Human immunodeficiency virus 1; chronically HIV-infected human fetal lung cells; concentration causing 50 % inhibition of virus replication
# Excerpt: Die Verbindungen der vorliegenden Erfindung weisen eine antivirale Wirksamkeit auf und können somit beispielsweise zur Behandlung von HIV-bedingten Krankheiten oder Infektionen eingesetzt werden. Der Nachweis der Anti-HIV-Wirksamkeit erfolgt in Zell- oder Gewebekulturen, wobei die direkte Hemmung der HIV-Replikation gemessen wird.
# Zunächst erfolgt eine Behandlung von HIV-infizierten humanen T-Lymphomzellen bzw. HIV-infizierten humanen fetalen Lungenzellen mit der zu untersuchenden Verbindung in Verdünnungsreihe. Anschließend erfolgt eine Quantifizierung der Virusmenge im Überstand durch Neuinfektion von humanen fetalen Lungenzellen. Die Abnahme der entstandenen HIV-positiven Zellkolonien gilt als direktes Maß für die antivirale Wirksamkeit der untersuchten Verbindung.
# In der folgenden Tabelle sind diejenigen Konzentrationen angegeben, die eine 50 %-ige Hemmung der Virusreplikation bewirken (IC₅₀-Werte).
row,Compound,IC50 [µg/mL]
1,"CCCCCCCCCCCCOC(CCCCCCCCCCCC)COP(=O)([O-])OCC[N+](C)(C)C (stereo not drawn) [Beispiel 2, 2-Dodecyloxytetradecvl-1-phosphorsäure-monocholinester]",1
2,"CCCCCCCCCCCCSC(CCCCCCCCCCCC)COP(=O)([O-])OCC[N+](C)(C)C (stereo not drawn) [Beispiel 1, 2-Dodecylmercapto-tetradecyl-1-phosphorsäure-monocholinester]",30
3,"CCCCCCCCCCCCSCC(CCCCCCCCCCC)COP(=O)([O-])OCC[N+](C)(C)C (stereo not drawn) [Beispiel 3, 2-Dodecylmercaptomethyl-tridecyl-1-phosphorsäure-monocholinester]",12
